Experiment [1] deals with native rat cortical TRH receptors. Description: TRH receptor binding: displacement of [3H][3-Me-His2]TRH from rat cortical membranes. The settings on record: for Affinity for [3H]-3MeHis-TRH-labelled receptors in rat brain cortex: result in words; for Affinity for [3H]-3MeHis-TRH-labelled receptors compared with 3MeHis-TRH: rat brain cortex. The method, then: It cannot be ruled out, however, that [^3H][3-Me-His^2]TRH is binding to a TRH receptor subtype in rat brain cortex that has yet to be identified.
Radioligand binding assays were carried out to examine the ability of these TRH-DE inhibitors to bind to TRH receptors. This was achieved by measuring the ability of the inhibitors to displace [^3H][3-Me-His^2]TRH binding to rat cortical membranes. Membranes were prepared from the cortex of male Wistar rats. The binding of [^3H]-3MeHis-TRH to TRH receptors in cortical membranes was measured as described previously (Kelly et al., 2002) using 10 mM TRH to define non-specific binding. The affinity of TRH-DE inhibitors for TRH receptors was determined in competition experiments and data were analyzed using GraphPad Prism. […] The rank order of potency of D isomer inhibitors was JAK4-D>JAK2-D>JAK1-D.

For experiment [2], the system named is Male Wistar rats. As to the kind of experiment: Antagonism of barbiturate-induced sleep time (analeptic effect). The settings on record: 1 mg/kg i.v.; for Sleep time: 10 min after sodium pentobarbitone 30 mg/kg i.p., mean ± SEM; for Effect on barbiturate-induced sleep time: result in words. Format: in vivo, rat. The method, then:
The antagonism of barbiturate-induced anesthesia is a well-recognized pharmacological effect of TRH and is used in the art to indicate successful central delivery and activity of TRH analogues. […] Male Wistar rats (150-250 g) were anaesthetized with sodium pentobarbitone (30 mg/kg i.p.). […] Animals were placed on their backs and sleep times recorded. From Table III it can be seen that both […] [table]

The test system of experiment [3] is Male Wistar rats. As to the kind of experiment: Rat behaviour total activity score. It is filed as in vivo. The protocol:
These include, increased locomotor activity (21-22), induction of blinking and forepaw licking and body shaking behavior, often referred to as 'wet dog shakes' (WDS) Kelly et al., 2000b). […] Male Wistar rats (150-250 g) were placed in individual perspex boxes and allowed to acclimatize for 20 min. […] Individual behaviors were recorded for 30 sec at 5 min intervals by an observer who was blind to treatment. Behaviors during each observation period were summed to yield a total activity score.

The test system of experiment [4] is Male Wistar rats. As to the kind of experiment: Wet dog shaking (WDS) behavior. It is filed as in vivo, rat.
For experiment [5], the target named is T1, TRH-DE purified from porcine brain (Sus scrofa, UniProt A0A287AP33).
T1 construct: TRH-DE purified from porcine brain; from tissue; host or cells: porcine brain
Description: Inhibition of purified TRH-DE (kinetic/fluorometric assays). It is filed as biochemical. The settings on record: read-out: Ki values for TRH-DE inhibitors. The text has this: The binding capacity offered by in the vicinity of the S2′ binding site of TRH-DE was studied. […] The L-amino acids in these peptides were replaced with D-amino acids. The vast majority of naturally occurring polypeptides are composed of L-amino acids and mammalian proteolytic enzymes are designed to work with this stereochemistry. Thus, replacement of L-amino acids by D-amino acids is used in the art in an endeavor to confer stability to proteolytic degradation as described in U.S. Pat. No. 6,703,366. It is recognized by the art that this type of replacement, however, may lead to loss of peptide specificity and or activity as noted by U.S. Pat. No. 4,587,233, Sato et al. 1987 and Fischer 2003, and thus the effect of the replacement is unpredictable. […] Replacement of L-amino acids by D-amino acids may also be used to scan the relative importance of the stereochemistry of particular functional groups in a peptide structure and also that of local structures within the peptide (Hruby, 2002).
The ability of compounds to be hydrolysed by and to inhibit TRH-DE purified from porcine brain was determined using kinetic assays as previously described (Kelly et al. 1999, 2000a, 2000b, U.S. Pat. application 20030166944). […] [JAK 1, JAK 2, JAK 3, JAK 4 and JAK 5 are described in U.S. Pat. App. No. 20030166944.]
HPLC analysis was used, as previously described (Kelly et al. 2000a, U.S. Pat. App. 20030166944), to assess the ability of each compound listed above to act as a TRH-DE substrate. […] Compounds were then screened for their ability to inhibit TRH-DE purified from porcine brain using fluorometric assays, as previously described (Kelly et al. 2000a, U.S. Pat. App. 20030166944).

Experiment [6] relates to native rat cortical TRH receptors. The note with it: cited from earlier work; for Affinity compared to TRH for [3H]-3MeHis-TRH-labelled receptors in rat cortical membranes: previous studies (Kelly et al., 2002).
The subject of experiment [7] is Male Wistar rats. The settings on record: Kelly et al., 2000b; cited from earlier work.
Setting [8] is: L isomer, JAK compounds dissolved in DMSO, read-out: Ki, inhibition of [3H]-3MeHis-TRH binding, X is L isomer aa.
Where [9] appears, read: D isomer, JAK compounds dissolved in DMSO, read-out: Ki, inhibition of [3H]-3MeHis-TRH binding, X is D isomer aa.

This is an account of results in patent US7713935B2, “Compounds that modulate TRH actions” (The Provost, Fellows and Scholars of The College of The …, priority 2004, dated 2010).

Like-named read-outs stand apart in the source and are kept apart here. Square brackets hold non-standard residues; d marks the D form. Peptide text beside a SMILES is read from it. * marks the point of attachment. AMC = Cc1cc(=O)oc2cc(N*)ccc12; pGlu = O=C1CC[C@@H](C(=O)O)N1

T1 sequence (A0A287AP33 1-1066): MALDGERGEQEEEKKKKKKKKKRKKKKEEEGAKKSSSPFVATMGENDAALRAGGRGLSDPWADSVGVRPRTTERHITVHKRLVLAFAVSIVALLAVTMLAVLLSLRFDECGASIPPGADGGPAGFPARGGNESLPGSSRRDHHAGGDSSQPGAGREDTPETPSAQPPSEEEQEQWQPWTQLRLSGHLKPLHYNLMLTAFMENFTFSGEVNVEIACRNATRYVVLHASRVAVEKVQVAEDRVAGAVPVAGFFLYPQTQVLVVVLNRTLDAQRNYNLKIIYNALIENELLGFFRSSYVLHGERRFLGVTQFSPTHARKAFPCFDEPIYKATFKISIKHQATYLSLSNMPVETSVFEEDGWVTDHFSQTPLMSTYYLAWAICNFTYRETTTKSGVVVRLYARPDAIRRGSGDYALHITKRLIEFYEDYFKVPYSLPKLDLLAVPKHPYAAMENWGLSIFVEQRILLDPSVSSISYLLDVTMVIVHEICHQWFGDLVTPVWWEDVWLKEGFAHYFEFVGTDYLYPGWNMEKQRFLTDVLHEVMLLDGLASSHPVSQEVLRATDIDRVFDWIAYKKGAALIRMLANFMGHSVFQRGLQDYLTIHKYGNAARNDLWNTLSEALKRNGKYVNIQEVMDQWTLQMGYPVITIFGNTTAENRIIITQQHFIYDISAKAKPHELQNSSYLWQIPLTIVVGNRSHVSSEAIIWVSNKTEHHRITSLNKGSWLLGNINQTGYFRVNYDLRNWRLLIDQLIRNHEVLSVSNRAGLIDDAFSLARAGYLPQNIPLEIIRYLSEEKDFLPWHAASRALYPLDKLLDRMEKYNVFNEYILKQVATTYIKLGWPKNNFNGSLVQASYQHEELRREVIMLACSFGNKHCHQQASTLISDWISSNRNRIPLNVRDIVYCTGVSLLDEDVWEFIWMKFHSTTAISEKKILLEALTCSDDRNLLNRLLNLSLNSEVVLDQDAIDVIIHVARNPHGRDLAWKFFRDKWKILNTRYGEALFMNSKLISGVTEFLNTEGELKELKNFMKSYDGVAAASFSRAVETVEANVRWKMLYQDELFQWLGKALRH

One may read the Ki as the equilibrium dissociation constant of an inhibitor or competing ligand from its target. Turning to `NC(=O)[C@@H]1CCCN1C(=O)[C@H](Cc1c[nH]cn1)NC(=O)[C@@H]1CCC(=O)N1` [TRH, pyroglutamyl-histidyl-prolineamide, reference compound], the Ki in experiment [1] (setting [8]) is 22 nM. Moreover, in the experiment on Male Wistar rats [2], the “Sleep time” value is on record as 54.5 ± 4.3 min and the “Effect on barbiturate-induced sleep time” value is “significantly (p<0.05, Student's t-test) reduce”. Further, the “Effect on rat activity” value in the experiment with Male Wistar rats [3] (TRH 5-50 mg/kg) is on record as “dose-dependent increase”. Moreover, in the experiment with Male Wistar rats [4] (TRH i.p.), the “Effect on WDS” value was “concentration-dependent increase”, the “Persistence of effects on WDS” value is “approximately 20 min” and the “Time of maximum numbers of WDS post administration” value is 5 min.

`Cn1cncc1C[C@H](NC(=O)[C@@H]1CCC(=O)N1)C(=O)N1CCC[C@H]1C(N)=O` [3-MeHis-TRH, reference compound]: the Ki in experiment [1] (in DMSO, read-out: Ki, inhibition of [3H]-3MeHis-TRH binding) is 74 nM; in experiment [1] (in saline, read-out: Ki, inhibition of [3H]-3MeHis-TRH binding) it was 1.9 nM.

`Cc1cc(=O)oc2cc(NC(=O)[C@H](Cc3c[nH]c4ccccc34)NC(=O)[C@H](Cc3c[nH]c4ccccc34)NC(=O)[C@H](Cc3ccc(O)cc3)NC(=O)[C@@H]3CCCN3C(=O)[C@H](CC(N)=O)NC(=O)[C@@H]3CCC(=O)N3)ccc12` [JAK 1, Glp-Asn-Pro-LTyr-LTrp-LTrp-AMC] ([pGlu]NPYWW-{AMC}): the Ki in experiment [5] is 1 nM; in experiment [1] (setting [8]) it was more than 100000 nM. Moreover, in experiment [1], the “Affinity for [3H]-3MeHis-TRH-labelled receptors in rat brain cortex” value is “low affinity”.

For `NC(=O)C[C@H](NC(=O)[C@@H]1CCC(=O)N1)C(=O)N1CCC[C@H]1C(=O)N[C@H](Cc1ccc(O)cc1)C(=O)N[C@H](Cc1c[nH]c2ccccc12)C(N)=O` [JAK 4D, Glp-Asn-Pro-D-Tyr-D-TrpNH2] ([pGlu]NP[dY][dW]-NH2), the Ki in experiment [5] amounted to 110 nM. Also, the Ki in experiment [1] (setting [9]) was found to be 5.5 nM. Besides, the “Affinity for [3H]-3MeHis-TRH-labelled receptors compared with 3MeHis-TRH” value in experiment [1] was “greater affinity”. Further, the “Sleep time” value with Male Wistar rats [2] was found to be 54.1 ± 2.4 min. Also, in the experiment with Male Wistar rats [3] (0.1 mg/kg), the “Responses on co-administration with 10 mg/kg TRH” value was “equivalent to those achieved by 20 and 50 mg/kg TRH”. In addition, the “Effect of pre-treatment on stimulatory effect of 10 mg/kg TRH” value in the experiment on Male Wistar rats [3] (0.1 mg/kg, 15-20 min after TRH) is “enhanced”. Also, in the experiment with Male Wistar rats [3] (1 mg/kg JAK4-D), the “Activity response compared with TRH” value is on record as “comparable to that produced by TRH 5 mg/kg”. In addition, in the experiment with Male Wistar rats [3] (1 mg/kg, entire observation period), the “Effect of pre-treatment on responses to 10 mg/kg TRH” value is “enhanced and prolonged”. Also, the “Effect on spontaneous rat activity scores vs vehicle” value in the experiment on Male Wistar rats [3] (0.1-5 mg/kg i.p.) is recorded as “transient increase”. In the experiment with Male Wistar rats [4] (1 mg/kg), the “Effect of pre-treatment on peak WDS response to 10 mg/kg TRH” value is “enhanced” and the “Occurrence of WDS” value is “comparable with the response produced by 5 mg/kg TRH”.

For `NC(=O)C[C@H](NC(=O)[C@@H]1CCC(=O)N1)C(=O)N1CCC[C@H]1C(=O)N[C@@H](Cc1ccc(O)cc1)C(=O)N[C@@H](Cc1c[nH]c2ccccc12)C(=O)N[C@@H](Cc1c[nH]c2ccccc12)C(N)=O` [JAK 3, Glp-Asn-Pro-LTyr-LTrp-LTrpNH2] ([pGlu]NPYWW-NH2), the Ki in experiment [5] was determined as 730 nM.

For `NC(=O)[C@@H](Cc1c[nH]c2ccccc12)NC(=O)[C@@H](Cc1ccc(O)cc1)NC(=O)[C@@H]1CCCN1C(=O)[C@H](Cc1c[nH]cn1)NC(=O)[C@@H]1CCC(=O)N1` [JAK 7D, Glp-His-Pro-D-Tyr-D-TrpNH2] ([pGlu]HP[dY][dW]-NH2), the Ki in experiment [5] was determined as 19600 nM; in experiment [1] (setting [9]), 1000 nM.

Take `Cc1cc(=O)oc2cc(NC(=O)[C@@H]3CCCN3C(=O)[C@H](CC(N)=O)NC(=O)[C@@H]3CCC(=O)N3)ccc12` [JAK 5, Glp-Asn-Pro-AMC] ([pGlu]-Asn-Pro-{AMC}): the inhibitory constant (Ki) in experiment [5] is 970 nM. The “Affinity compared to TRH for [3H]-3MeHis-TRH-labelled receptors in rat cortical membranes” value in experiment [6] is recorded as “relatively low affinity”. Further, in the experiment with Male Wistar rats [7], the “Effect on central effects of TRH in vivo” value is on record as “amplify”.

In the case of `NC(=O)C[C@H](NC(=O)[C@@H]1CCC(=O)N1)C(=O)N1CCC[C@H]1C(N)=O` [JAK 6, Glp-Asn-ProNH2] ([pGlu]-Asn-Pro-NH2), the inhibition constant Ki in experiment [5] came to 16100 nM. In addition, the “Affinity compared to TRH for [3H]-3MeHis-TRH-labelled receptors in rat cortical membranes” value in experiment [6] is on record as “relatively low affinity”.

Turning to `Cc1cc(=O)oc2cc(NC(=O)[C@@H](Cc3c[nH]c4ccccc34)NC(=O)[C@@H](Cc3ccc(O)cc3)NC(=O)[C@@H]3CCCN3C(=O)[C@H](CC(N)=O)NC(=O)[C@@H]3CCC(=O)N3)ccc12` [JAK 2D, Glp-Asn-Pro-DTyr-DTrpAMC] ([pGlu]NP[dY][dW]-{AMC}), the Ki in experiment [5] came to 100 nM; in experiment [1] (setting [9]), 3.7 nM. Moreover, in experiment [1], the “Affinity for [3H]-3MeHis-TRH-labelled receptors compared with 3MeHis-TRH” value was “greater affinity”.

On to `Cc1cc(=O)oc2cc(NC(=O)[C@H](Cc3c[nH]c4ccccc34)NC(=O)[C@H](Cc3ccc(O)cc3)NC(=O)[C@@H]3CCCN3C(=O)[C@H](CC(N)=O)NC(=O)[C@@H]3CCC(=O)N3)ccc12` [JAK 2, Glp-Asn-Pro-LTyr-LTrp-AMC] ([pGlu]NPYW-{AMC}), for which, in experiment [1] (setting [8]), the Ki was approximately 40000 nM. In addition, the “Affinity for [3H]-3MeHis-TRH-labelled receptors in rat brain cortex” value in experiment [1] is recorded as “low affinity”.

As for [pGlu]NP[dY][dW]-NH2, the “Effect on barbiturate-induced sleep time” value in the experiment on Male Wistar rats [2] is listed as “significantly (p<0.05, Student's t-test) reduce”.

For the compound `NC(=O)C[C@H](NC(=O)[C@@H]1CCC(=O)N1)C(=O)N1CCC[C@H]1C(=O)N[C@@H](Cc1ccc(O)cc1)C(=O)N[C@@H](Cc1c[nH]c2ccccc12)C(N)=O` [JAK 4, Glp-Asn-Pro-LTyr-LTrp-NH2] ([pGlu]NPYW-NH2), the Ki in experiment [1] (setting [8]) is 120 nM.

Take `Cc1cc(=O)oc2cc(NC(=O)[C@@H](Cc3c[nH]c4ccccc34)NC(=O)[C@@H](Cc3c[nH]c4ccccc34)NC(=O)[C@@H](Cc3ccc(O)cc3)NC(=O)[C@@H]3CCCN3C(=O)[C@H](CC(N)=O)NC(=O)[C@@H]3CCC(=O)N3)ccc12` [JAK 1D, Glp-Asn-Pro-DTyr-DTrp-DTrpAMC] ([pGlu]NP[dY][dW][dW]-{AMC}): the inhibitory constant (Ki) in experiment [5] is 30 nM; in experiment [1] (setting [9]), 60 nM.

Broadly, the Kd is the equilibrium constant for the complex coming apart. Turning to “[^3H][3-Me-His^2]TRH [reference compound]”, in experiment [6] (single population of high affinity sites (Sharif 1989, Kelly et al., 2002), read-out: Kd on rat brain cortical membranes), the Kd is approximately 5 nM.
